Source: patent US12325676B2, “Cationic lipid compound and composition for delivery of nucleic acids and use thereof” (Shenzhen Rhegen Biotechnology Co., Ltd., priority 2022, dated 2025)

Test: Encapsulation rate of mRNA-loaded lipid nanoparticles (Ribogreen kit)
Type: physicochemical

CCCCCCCCSCC(C)C(=O)OCCCCCN(CCO)CCCCCCCC(=O)OC(CCCCCCCC)CCCCCCCC (stereo not shown) [Compound 35]
Encapsulation rate (%) (Table 2 No. 1, Luc mRNA LNP, Compound 35/DMG-PEG2000/DSPC/cholesterol 55/2.5/22/20.5 molar, N/P 5): 85.78%
Encapsulation rate (%) (Table 2 No. 2, Luc mRNA LNP, Compound 35/DMG-PEG2000/DSPC/cholesterol 45/1.5/22/31.5 molar, N/P 10): 96.98%
Encapsulation rate (%) (Table 2 No. 3, Luc mRNA LNP, Compound 35/DMG-PEG2000/DSPC/cholesterol 45/2.5/8/44.5 molar, N/P 5): 97.38%
Encapsulation rate (%) (Table 2 No. 4, Luc mRNA LNP, Compound 35/DMG-PEG2000/DSPC/cholesterol 45/1.5/8/45.5 molar, N/P 10): 96.70%
Encapsulation rate (%) (Table 2 No. 5, Luc mRNA LNP, Compound 35/DMG-PEG2000/DSPC/cholesterol 50/1.5/15/33.5 molar, N/P 7.5): 96.10%
Encapsulation rate (%) (Table 2 No. 6, Luc mRNA LNP, Compound 35/DMG-PEG2000/DSPC/cholesterol 55/1.5/15/28.5 molar, N/P 10): 94.46%
Encapsulation rate (%) (Table 2 No. 7, Luc mRNA LNP, Compound 35/DMG-PEG2000/DOPE/cholesterol 55/2.5/22/20.5 molar, N/P 5): 90.26%
Encapsulation rate (%) (Table 2 No. 8, Luc mRNA LNP, Compound 35/DMG-PEG2000/DOPE/cholesterol 45/1.5/22/31.5 molar, N/P 10): 94.11%
Encapsulation rate (%) (Table 2 No. 9, Luc mRNA LNP, Compound 35/DMG-PEG2000/DOPE/cholesterol 45/2.5/8/44.5 molar, N/P 5): 94.62%
Encapsulation rate (%) (Table 2 No. 10, Luc mRNA LNP, Compound 35/DMG-PEG2000/DOPE/cholesterol 45/1.5/8/45.5 molar, N/P 10): 96.36%
Encapsulation rate (%) (Table 2 No. 11, Luc mRNA LNP, Compound 35/DMG-PEG2000/DOPE/cholesterol 50/1.5/15/33.5 molar, N/P 7.5): 92.54%
Encapsulation rate (%) (Table 2 No. 12, Luc mRNA LNP, Compound 35/DMG-PEG2000/DOPE/cholesterol 55/1.5/15/28.5 molar, N/P 10): 96.16%
Encapsulation rate (%) (Table 4 batch, EPO mRNA LNP prepared as Example 20): 96.1%
